Tested on: Detoxification protein genes
Experiment: DNA chip mRNA expression in yeast, detoxification protein genes (Table 8)
Type: cell-based, Saccharomyces cerevisiae S288C
Procedure, shortened: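 Values are treated/untreated fluorescence ratios from a whole-genome yeast DNA chip hybridized over 12 hours at 65° C with Cy3- or Cy5-labelled cDNA from poly(A) mRNA. Log-phase S288C yeast in YPD at 25° C had received a single toxic chemical for two hours, dosed to slow growth without killing.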

SMILES: CN(C)C(=S)SSC(=S)N(C)C [(10), Tetramethylthiuram disulfide]
- The level of expressed mRNA in the presence of chemical substance/The level of expressed mRNA in the absence of chemical substance (yeast gene YBL064C): 3.8
- The level of expressed mRNA in the presence of chemical substance/The level of expressed mRNA in the absence of chemical substance (yeast gene YBR008C): 21.1
- The level of expressed mRNA in the presence of chemical substance/The level of expressed mRNA in the absence of chemical substance (yeast gene YBR145W): 1.1
- The level of expressed mRNA in the presence of chemical substance/The level of expressed mRNA in the absence of chemical substance (yeast gene YBR244W): 3.0
- The level of expressed mRNA in the presence of chemical substance/The level of expressed mRNA in the absence of chemical substance (yeast gene YBR293W): 2.4
- The level of expressed mRNA in the presence of chemical substance/The level of expressed mRNA in the absence of chemical substance (yeast gene YCL035C): 2.3
- The level of expressed mRNA in the presence of chemical substance/The level of expressed mRNA in the absence of chemical substance (yeast gene YCL069W): 6.9
- The level of expressed mRNA in the presence of chemical substance/The level of expressed mRNA in the absence of chemical substance (yeast gene YCR083W): 1.8
- The level of expressed mRNA in the presence of chemical substance/The level of expressed mRNA in the absence of chemical substance (yeast gene YDL100C): 3.2
- The level of expressed mRNA in the presence of chemical substance/The level of expressed mRNA in the absence of chemical substance (yeast gene YDL168W): 4.7
- The level of expressed mRNA in the presence of chemical substance/The level of expressed mRNA in the absence of chemical substance (yeast gene YDR256C): 2.0
- The level of expressed mRNA in the presence of chemical substance/The level of expressed mRNA in the absence of chemical substance (yeast gene YDR453C): 6.1
- The level of expressed mRNA in the presence of chemical substance/The level of expressed mRNA in the absence of chemical substance (yeast gene YDR513W): 3.1
- The level of expressed mRNA in the presence of chemical substance/The level of expressed mRNA in the absence of chemical substance (yeast gene YDR538W): 0.8
- The level of expressed mRNA in the presence of chemical substance/The level of expressed mRNA in the absence of chemical substance (yeast gene YEL027W): 1.1
- The level of expressed mRNA in the presence of chemical substance/The level of expressed mRNA in the absence of chemical substance (yeast gene YEL065W): 4.9
- The level of expressed mRNA in the presence of chemical substance/The level of expressed mRNA in the absence of chemical substance (yeast gene YER185W): 1.2
- The level of expressed mRNA in the presence of chemical substance/The level of expressed mRNA in the absence of chemical substance (yeast gene YFL050C): 1.6
- The level of expressed mRNA in the presence of chemical substance/The level of expressed mRNA in the absence of chemical substance (yeast gene YGL013C): 1.5
- The level of expressed mRNA in the presence of chemical substance/The level of expressed mRNA in the absence of chemical substance (yeast gene YGL254W): 1.8
- The level of expressed mRNA in the presence of chemical substance/The level of expressed mRNA in the absence of chemical substance (yeast gene YGR088W): 3.2
- The level of expressed mRNA in the presence of chemical substance/The level of expressed mRNA in the absence of chemical substance (yeast gene YGR138C): 1.0
- The level of expressed mRNA in the presence of chemical substance/The level of expressed mRNA in the absence of chemical substance (yeast gene YGR197C): 3.2
- The level of expressed mRNA in the presence of chemical substance/The level of expressed mRNA in the absence of chemical substance (yeast gene YGR209C): 6.3
- The level of expressed mRNA in the presence of chemical substance/The level of expressed mRNA in the absence of chemical substance (yeast gene YGR224W): 0.9
- The level of expressed mRNA in the presence of chemical substance/The level of expressed mRNA in the absence of chemical substance (yeast gene YHL040C): 11.3
- The level of expressed mRNA in the presence of chemical substance/The level of expressed mRNA in the absence of chemical substance (yeast gene YHL047C): 11.9
- The level of expressed mRNA in the presence of chemical substance/The level of expressed mRNA in the absence of chemical substance (yeast gene YHR008C): 2.4
- The level of expressed mRNA in the presence of chemical substance/The level of expressed mRNA in the absence of chemical substance (yeast gene YHR048W): 2.7
- The level of expressed mRNA in the presence of chemical substance/The level of expressed mRNA in the absence of chemical substance (yeast gene YHR053C): 2.9
- The level of expressed mRNA in the presence of chemical substance/The level of expressed mRNA in the absence of chemical substance (yeast gene YHR055C): 3.3
- The level of expressed mRNA in the presence of chemical substance/The level of expressed mRNA in the absence of chemical substance (yeast gene YIR002C): 1.4
- The level of expressed mRNA in the presence of chemical substance/The level of expressed mRNA in the absence of chemical substance (yeast gene YIR038C): 4.5
- The level of expressed mRNA in the presence of chemical substance/The level of expressed mRNA in the absence of chemical substance (yeast gene YJL101C): 3.6
- The level of expressed mRNA in the presence of chemical substance/The level of expressed mRNA in the absence of chemical substance (yeast gene YJR104C): 2.8
- The level of expressed mRNA in the presence of chemical substance/The level of expressed mRNA in the absence of chemical substance (yeast gene YKL026C): 3.0
- The level of expressed mRNA in the presence of chemical substance/The level of expressed mRNA in the absence of chemical substance (yeast gene YKL064W): 1.6
- The level of expressed mRNA in the presence of chemical substance/The level of expressed mRNA in the absence of chemical substance (yeast gene YKR066C): 2.4
- The level of expressed mRNA in the presence of chemical substance/The level of expressed mRNA in the absence of chemical substance (yeast gene YKR105C): 5.2
- The level of expressed mRNA in the presence of chemical substance/The level of expressed mRNA in the absence of chemical substance (yeast gene YKR106W): 7.4
- The level of expressed mRNA in the presence of chemical substance/The level of expressed mRNA in the absence of chemical substance (yeast gene YLL028W): 2.3
- The level of expressed mRNA in the presence of chemical substance/The level of expressed mRNA in the absence of chemical substance (yeast gene YLL057C): 2.9
- The level of expressed mRNA in the presence of chemical substance/The level of expressed mRNA in the absence of chemical substance (yeast gene YLL060C): 23.2
- The level of expressed mRNA in the presence of chemical substance/The level of expressed mRNA in the absence of chemical substance (yeast gene YLR043C): 2.5
- The level of expressed mRNA in the presence of chemical substance/The level of expressed mRNA in the absence of chemical substance (yeast gene YLR046C): 1.4
- The level of expressed mRNA in the presence of chemical substance/The level of expressed mRNA in the absence of chemical substance (yeast gene YML028W): 1.8
- The level of expressed mRNA in the presence of chemical substance/The level of expressed mRNA in the absence of chemical substance (yeast gene YML116W): 3.1
- The level of expressed mRNA in the presence of chemical substance/The level of expressed mRNA in the absence of chemical substance (yeast gene YMR015C): 0.3
- The level of expressed mRNA in the presence of chemical substance/The level of expressed mRNA in the absence of chemical substance (yeast gene YMR038C): 2.6
- The level of expressed mRNA in the presence of chemical substance/The level of expressed mRNA in the absence of chemical substance (yeast gene YNL239W): 6.0
- The level of expressed mRNA in the presence of chemical substance/The level of expressed mRNA in the absence of chemical substance (yeast gene YNL241C): 7.4
- The level of expressed mRNA in the presence of chemical substance/The level of expressed mRNA in the absence of chemical substance (yeast gene YNL259C): 2.1
- The level of expressed mRNA in the presence of chemical substance/The level of expressed mRNA in the absence of chemical substance (yeast gene YOL158C): 6.1
- The level of expressed mRNA in the presence of chemical substance/The level of expressed mRNA in the absence of chemical substance (yeast gene YOR031W): 1.3
- The level of expressed mRNA in the presence of chemical substance/The level of expressed mRNA in the absence of chemical substance (yeast gene YOR153W): 1.2
- The level of expressed mRNA in the presence of chemical substance/The level of expressed mRNA in the absence of chemical substance (yeast gene YOR247W): 0.4
- The level of expressed mRNA in the presence of chemical substance/The level of expressed mRNA in the absence of chemical substance (yeast gene YOR251C): 0.8
- The level of expressed mRNA in the presence of chemical substance/The level of expressed mRNA in the absence of chemical substance (yeast gene YOR273C): 0.5
- The level of expressed mRNA in the presence of chemical substance/The level of expressed mRNA in the absence of chemical substance (yeast gene YPL163C): 0.4
- The level of expressed mRNA in the presence of chemical substance/The level of expressed mRNA in the absence of chemical substance (yeast gene YPR200C): 3.8

From US8192962B2, “Processes for detecting toxic substances” (Daikin Industries, Ltd., priority 2001, dated 2012)
